How the values were obtained:
[1] = test system: B6 mice subjected to ischemic stroke; assay: Ischemic stroke in B6 mice supplemented with 20-OH PGE2; format: in vivo, mouse; settings: 20-OH PGE2 250 ng/h via osmotic pump, 7 days, vs vehicle
Experimental: B6 mice were divided into two groups: one supplemented with 20-OH PGE2 (250 ng/h in an osmotic pump) and one given vehicle. After one week of treatment, the mice were subjected to ischemic stroke.
Although 20-OH PGE2 elicits beneficial protective effects in brain endothelial cells under OGD/Rep, the precise role of 20-OH PGE2 in ischemic stroke is still to be defined. To determine the effects of 20-OH PGE2 supplementation on stroke damage, B6 mice were treated with 20-OH PGE2 (Cayman) (administered via an osmotic pump (Alzet) at a dose of 250 ng/h) or vehicle for 7 days. The effects of 20-OH PGE2 on infarct size and neurological deficit after ischemic stroke were examined.

[2] = test system: 20-HETE production in MC38 cells; assay: 20-HETE production in cultured MC38 cells (LC/MS/MS); format: cell-based, mouse; settings: HET0016 1 μM vs vehicle; FIG. 1C
Experimental: (§1) MC38 cells were maintained in complete medium consisting of DMEM supplemented with 10% heat-inactivated FBS, […] streptomycin, and 100 U/ml penicillin in a humidified incubator at 37° C. with 5% CO2. Sub-confluent cultured cells were harvested by washing T-75 flasks two times with Ca^2+- and Mg^2+-free Earl's balanced salts, followed by 2 min incubation with 0.25% trypsin-EDTA (Life Technologies, Grand Island, N.Y.) at 37° C. A human cerebral microvascular endothelial cell line (HCMECL) was used in the studies (University of Georgia, Athens, Ga.). Primary rat brain microvascular endothelial cells (RBMEC) were prepared as described previously (Prakash, et al., Diabetes 61:97 1533-1542 (2012)). HCMECL and RBMEC were maintained in MCDB-131 complete medium (VEC Technologies, Rensselaer, N.Y.).
(§2) MC38 cells were collected using 0.25% trypsin-EDTA. After centrifugation, a cell pallet was re-suspended in 300 μl of PBS. […] The concentrations of 20-HETE in media and cell lysates were determined by Liquid Chromatography—Tandem Mass Spectrometry (LC/MS/MS) using 15(S)-HETE-d8 as an internal standard as described previously (Chen, et al., Prostaglandins Other Lipid Mediat 104-105:42-48 (2013)). […] The concentrations of PGE2 in media and cell lysates were determined by an ELISA kit (Cayman Chemical, Ann Arbor, Mich.) according to the manufacturer's instructions.

[3] = test system: MC38 cells; assay: MC38 cell growth by counting cell numbers; format: cell-based, mouse; settings: single agent 100 nM to 10 μM, 48 h, serum-free medium + EGF 200 ng/ml; FIG. 3A/3B
Experimental: For cell growth experiments, cells were seeded onto 6-well plates at a density of 2.5×10^5 cells/well. […] After 48 h of treatment, cells were collected using 0.25% trypsin-EDTA and counted using a hemocytometer.

[4] = test system: MC38 cells; assay: MC38 cell proliferation by BrdU ELISA assay; format: cell-based, mouse; settings: 48 h
Experimental: MC38 cells were seeded at a density of 5×10^3 cells/well in 10% FBS/DMEM in 96-well plates. […] BrdU ELISA assay was done using an ELISA kit (CycLex Co., Nagano, Japan). Briefly, 3 h before assay, BrdU (10 μM final concentration) was added to the 96-well plates containing MC38 cells given different incubation conditions. After 3 h of incubation, the culture medium was removed, and fixed with Fixing/Denaturing solution (200 μl/well) at room temperature for 30 min. After removing Fixing/Denaturing solution, plates were incubated with monoclonal anti-BrdU antibody (50 μl/well) at room temperature for 1 h. Plates were washed five times with Wash buffer (200 μl/well), then incubated with the secondary antibody (50 μl/well) at room temperature for 1 h. After removing the secondary antibody and doing a second wash procedure, plates were incubated with Substrate Reagent (50 μl/well) at room temperature for 15 min in the dark. The reaction was then stopped by adding Stop Solution (50 μl/well). The absorbance in each well was measured using a Tecan GENios Plus microplate reader at dual wavelengths of 450/540 nm.

[5] = test system: subcutaneous MC38 tumors; assay: Tumor growth in MC38 colon tumor-bearing C57BL/6J mice; format: in vivo, mouse; settings: HET0016 5 or 10 mg/kg/day i.p.; rofecoxib 50 mg/l in drinking water; combination compared with rofecoxib alone; FIG. 5
Experimental: 8-week-old male C57BL/6J mice were subcutaneously injected with MC38 cells (1.4×10^6 cells/mouse) to induce colon tumor. […] All treatments were done for 21 days. Rofecoxib (50 mg/l) was suspended in drinking water containing 1% (vol/vol) PEG 400 (Sigma-Aldrich) and 0.5% (wt/vol) 2-hydroxypropyl-β-cyclodextrin (Sigma-Aldrich). The formula and dose of rofecoxib were prepared according to a previous publication (Liu, et al., Proc Natl Acad Sci USA 107: 17017-17022 (2010)). Tumor growth rates were monitored by measuring tumor volume with a sliding caliper on day 9 or day 18 after cell-implantation. The volumes of tumors were calculated from the major dimension (L) and minor dimension (S), using the equation: tumor volume=L×(S)2/2 as described previously (Konson, et al., Cancer Gene Ther 11: 830-840 (2004)).

[6] = test system: plasma eicosanoids; assay: Plasma 20-HETE and other eicosanoids in MC38 tumor mice (LC/MS/MS); format: in vivo, mouse; settings: 3 weeks; for Plasma 20-HETE levels / Plasma levels of EETs/DHETs, 5-HETE, 8-HETE, 11-HETE, 15-HETE: rofecoxib 50 mg/l, HET0016 5 mg/kg/day i.p. given with rofecoxib, FIG. 6A
Experimental: After 3 weeks of different treatments, MC38 tumor mice were anesthetized with 2% isoflurane delivered by an anesthesia apparatus. About 0.6 ml of venous blood was collected from mice using a 1-ml syringe containing sodium citrate. The samples were centrifuged at 2,400×g for 15 min to obtain platelet-free plasma. To stabilize eicosanoids in plasma samples, 10 μl combinations of antioxidants (EDTA (0.2 mg/l), butylated hydroxytoluene (0.2 mg/l), and triphenyphosphine (2 mg/l)) were added to each plasma sample. The plasma samples were stored at −80° C. until LC/MS/MS analysis. Plasma samples were spiked with 10 ng of 15(S)-HETE-d8, applied to preconditioned SEP Pak C18 cartridges (100 mg adsorbent, Waters), and washed with water followed by hexane. Eicosanoids were eluted with 500 μl of ethyl acetate-hexane (3:1). The eluate was dried under nitrogen and reconstituted in methanol: 25 mM aqueous ammonium acetate (7:3). The extracted and reconstituted sample was subjected to HPLC (Shimadzu Prominence XR system) on a Max-RP C18 column (2×150 mm, 3 μu, Phenomenex) isocratically eluted with methanol:13 mM aqueous ammonium acetate (8:2) at a flow rate of 0.4 ml/min. The eluent was monitored for 20-HETE, EETs (5,6-EET, 8,9-EET, 11,12-EET, 14,15-EET), DHETs (5,6-DHET, 8,9-DHET, 11,12-DHET, 14,15-DHET), 5-HETE, 8-HETE, 11-HETE, 15-HETE, PGJ2, PGE2, TXB2, and 15keto-PGE2 by mass spectrometer (QTRAP5500, ABSCIEX) in the negative ion mode using Multiple Reaction Monitoring under optimized conditions. 15(S)-HETE-d8 was used as the internal standard for recovery and quantitation. The concentrations of eicosanoids were determined by comparing the ratio of ion intensity of each eicosanoid versus that of 15(S)-HETE-d8, as described previously (Chen, et al., Prostaglandins Other Lipid Mediat 104-105:42-48 (2013); Maddipati, et al., Prostaglandins Other Lipid Mediat 94:59-72 (2011)).

[7] = test system: PGE2 production in MC38 cells; assay: PGE2 production in MC38 cells (PGE2 ELISA); format: cell-based, mouse; settings: dose response; FIG. 2C
Experimental: as §1, §2

[8] = Water intake and body weight of treated mice; format: in vivo, mouse; settings: rofecoxib 50 mg/l in drinking water, n=5
Experimental: In a complementary experiment, the water intake and body weight of mice treated with water, vehicle, and rofecoxib (50 mg/l) was determined. Neither vehicle (3.02±0.17 vs. 3.16±0.16 ml/24 h/mouse, n=5) nor rofecoxib (3.07±0.1 vs. 3.16±0.16 ml/24 h/mouse, n=5) treatment affected water intake. Likewise, there was no significant change of body weight among water (24±1.63 g/mouse, n=5), vehicle (23.8±1.1 g/mouse, n=5), and rofecoxib (24.5±1.0 g/mouse, n=5) group.

[9] = test system: Cyp4a; assay: Cyp4a expression in liver and kidney of MC38 tumor mice (Western blot); format: in vivo, mouse; settings: 3-week rofecoxib treatment, FIG. 6C
[10] = test system: MC38 tumor mice subjected to thromboembolic stroke; assay: Thromboembolic ischemic stroke in MC38 tumor mice: neurovascular injury and functional outcome; format: in vivo, mouse
From the text: Age-matched non-tumor mice were usedas control. At the end of the treatment period, mice were subjected to thromboembolic stroke. Under isoflurane anesthesia, the right common carotid artery, the right external carotid artery (ECA), and the right internal carotid artery were exposed through a middle incision on the ventral side of the neck. A PE 10 catheter containing a fibrin-rich clot was gently inserted from the ECA stump into the distal internal carotid artery just proximal to the origin of the middle cerebral artery (MCA). Each clot (˜1 cm), prepared from a donor mouse, was injected with 75 μl of sterile PBS; after 2 min, the catheter was withdrawn as described previously (Hoda, et al., Exp Transl Stroke Med 3:16 (2011)). Occlusion was confirmed by a ≧70% drop in cerebral blood flow as compared to the pre-ischemic value. The success rate of thromboembolic MCA occlusion was 95% based on changes in cerebral blood flow. At day 3 after surgery, mice were first evaluated for functional outcome, then sacrificed for evaluation of neurovascular injury including infarct size and bleeding. Extracted brains were analyzed for infarct size in coronal slices of 2 mm thickness, labeled A-G, front to back. Hemorrhagic transformation (HT), secondary bleeding into the brain after ischemic stroke was evaluated by the presence of visible macroscopic bleeding and measured in a binary fashion: yes or no. Number of animals that had HT was reported per group. 2, 3, 5-Triphenyltetrazolium chloride (TTC), a mitochondria stain, was used to outline the infarct area. The captured images were numerically labeled and analyzed using specialized KS300 software. Infarct size was expressed as a percentage of the contralateral hemisphere. Neurologic deficits in mice given different treatments were assessed at 24 h and 72 h after stroke, using a 5-point scale for scoring: 0, no deficit; 1, forelimb flexion deficit on contralateral side; 2, decreased resistance to lateral push and torso turning to the ipsilateral side when held by tail; 3, significant circling to the affected side and reduced capability to bear weight on the affected side; 4, rarely moved spontaneously and preferred to stay at rest.

| SMILES | Infarct size after ischemic stroke ([1]; FIG. 10A) | Neurological deficits after ischemic stroke ([1]; FIG. 10B) | 20-HETE production and secretion in MC38 cell media [2] | MC38 cell growth (cell number/well) [3] | BrdU incorporation into MC38 cells ([4]; 100 nM to 10 μM, serum-free medium + EGF 200 ng/ml, FIG. 4A) | Tumor size on day 9 post implantation [5] | Tumor size on day 18 post-implantation [5] | Plasma 20-HETE levels [6] | Plasma levels of EETs/DHETs, 5-HETE, 8-HETE, 11-HETE, 15-HETE [6] | Plasma PGJ2, PGE2, TXB2 and 15 keto-PGE2 levels ([6]; HET0016 5 mg/kg/day i.p., FIG. 6B) | PGE2 production in MC38 cells [7] | BrdU incorporation into MC38 cells at 1 μM ([4]; 1 μM (combination 1 μM each, compared with rofecoxib alone), FIG. 4B/4C) | Body weight [8] | Water intake ([8]; water group 3.16±0.16) | cyp4a expression in the liver and kidney [9] | Mortality after ischemic stroke ([10]; 3 weeks treatment, rofecoxib 50 mg/l, HET0016 5 mg/kg/day i.p.) | Animals that developed HT ([10]; C57BL/6J, mouse, in vivo, 3 weeks) | Functional outcome (neurological deficit score) ([10]; mouse, in vivo) | Infarct size ([10]; rofecoxib compared to control mice, combination compared to rofecoxib, FIG. 8B) |
| --- | --- | --- | --- | --- | --- | --- | --- | --- | --- | --- | --- | --- | --- | --- | --- | --- | --- | --- | --- |
| O=C(O)CCC/C=C\C[C@H]1C(=O)C[C@@H](O)[C@@H]1/C=C/[C@@H](O)CCCCCO [20-OH PGE2] | reduced | reduced | – | – | – | – | – | – | – | – | – | – | – | – | – | – | – | – | – |
| CCCCc1ccc(N=CNO)c(C)c1 [HET0016, N-Hydroxy-N′-(4-butyl-2-methylphenyl)formamidine] | – | – | effectively blocked 20-HETE production and secretion | inhibited cell growth | inhibited the incorporation of BrdU in a concentration dependent manner | did not affect tumor size | dose-dependently reduced tumor size | selectively reduced plasma 20-HETE levels | without affecting | did not affect | – | – | – | – | – | – | – | – | – |
| CS(=O)(=O)c1ccc(C2=C(c3ccccc3)C(=O)OC2)cc1 [rofecoxib] | – | – | – | inhibited cell growth | – | significantly reduced tumor size | significantly reduced tumor size | selectively increased 20-HETE plasma levels | no significant changes | – | dose-dependently inhibited PGE2 production | significantly inhibited BrdU incorporation | 24.5±1.0 g/mouse | 3.07±0.1 ml/24 h/mouse | had no effect on cyp4a expression | ~30% | 4 out of the 5 | neurological deficit scores were higher | reduced the size of infarcts |

Source: patent US9480664B2, “Compositions and methods for treating cancer” (Augusta University Research Institute, Inc., priority 2014, dated 2016)
